Results reported in patent US7981448B2, “Methods of treating necrotizing enterocolitis” (University of Pittsburgh, priority 2002, dated 2011).

How the values were obtained:
iNOS [1] = experiment: Western blot of ileal mucosal lysates (iNOS); assay type: in vivo, rat; conditions: H/F neonatal rats + CO, ileal mucosa
Procedure: (§1) Pregnant time-dated Sprague-Dawley rats were induced at term using subcutaneous injection of Pitocin (1 U). Immediately after birth (day zero), the neonates were weighed and randomized into two main groups. Animals were either left with their mothers and thus breast-fed, or separated from their mothers, housed in an incubator (Ohio Medical Products, Madison, Wis.), gavage fed with a special rodent formula two times daily, and subjected to 10 minutes of hypoxia (5% O2, 95% N2; PraxAir, Pittsburgh, Pa.) prior to each feeding. The formula consisted of 15 g Similac® 60/40 (Ross Pediatrics, Colombus, Ohio) in 75 mL of Esbilac® canine milk replacement (Pet-Ag Inc., Hampshire, Ill.). Rats from each group were further randomized to receive no additional treatment or one-hour per day CO treatment (250 parts per million; ppm, days 1-3). CO was delivered as described below. The neonatal rats were sacrificed on day four. The intestines were inspected for gross necrotic changes and pneumatosis intestinalis. […]
(§2) IEC-6 cells or ileal mucosal scrapings were collected in lysis buffer containing 20 mmol/L Tris with 100 μmol/L phenylmethylsulfonylfluoride (Sigma), 1 μmol/L leupeptin (Sigma), and 1 μmol/L sodium orthovanadate (Sigma). Protein was quantified by bicinchoninic acid (BCA) protein assay (Pierce, Rockford, Ill.). […]

IEC-6 cells [2] = experiment: TNF-α/Actinomycin D-induced IEC-6 cell death, viability by cellular ATP content; assay type: cell-based, rat; conditions: for TNF-α/ActD-induced IEC-6 cell death (in words): CoPP 16 hours before
Procedure: FIG. 7 is a bar graph illustrating that CO exposure and induction of HO-1 decreases TNF-α/Actinomycin D (TNF/ActD)-induced IEC-6 cell death. Viability of TNF-α (TNF; 10 ng/ml)/Actinomycin D (ActD; 200 ng/ml)-treated IEC-6 cells was assayed after 18 hours by measuring cellular ATP content. CO treatment (CO; gray bars; 250 ppm) was initiated 1 hour prior to administration of TNF-α/ActD and maintained throughout the duration of the experiment. Cross-hatched bars=cells exposed to cobalt protoporphyrin (CoPP) 16 hours prior to exposure to TNF-α/ActD. Black bars=air exposed cells. […] Results are mean±standard error of 3 independent studies performed in triplicate.
(§3) The rat small-intestinal epithelial cell line IEC-6 was obtained from the American Type Culture Collection (Manassas, Va.). Cells were grown in Dulbecco's modified Eagle's medium with 4.5 g/L glucose (Bio-Whittaker, Walkersville, Md.) supplemented with 5% fetal bovine serum, […] (Gibco, Grand Island, N.Y.), 0.1 U/mL insulin, and 100 U/mL penicillin/100 μg/mL streptomycin at 37° C. and 10% CO2. Cells from passages 3 through 20 were used for experiments.
Cell viability was determined by measuring ATP levels (CellTiter-Glo™; Promega) as per the manufacturer's protocol.
To determine whether HO-1 or CO inhibits cell death in vitro, the rat intestinal epithelial cell line IEC-6 was utilized. Cell death was induced by treating these cells with TNF-α (10 ng/ml) plus actinomycin D (ActD; 200 ng/ml). Cell viability was analyzed by crystal violet staining of adherent cells and assessment of cellular ATP content. TNF-α/ActD decreased IEC-6 cell viability to 24±2.1% that of untreated controls (FIG. 7; P<0.05).

rat iNOS promoter = experiment: Rat iNOS promoter-luciferase reporter assay in IEC-6 cells; assay type: cell-based; conditions: IEC-6, LPS 100 ng/ml + 1% oxygen + CO; 4.9±0.3 fold without CO
Procedure: FIG. 8B is a bar graph illustrating that rat iNOS promoter activity in LPS (100 ng/ml)/hypoxia (1% oxygen; lps/hypoxia)-treated IEC-6 cells is limited by exposure to CO. Cells were assayed for luciferase activity. […] CO limited this transcriptional activation to a 1.7±0.2 fold increase (P<0.05). Results are mean±standard error of 3 independent studies performed in triplicate.
as §3
pGL3/2 rat iNOS promoter-luciferase reporter was constructed as described in Beck et al., FEBS Lett 435:35-38 (1998). IEC-6 cells grown in 35 mm wells were transfected with 4 μL Lipofectamine2000® (Invitrogen), 0.15 μg pGL3/2 DNA and 0.5 μg pIEP-LacZ DNA, which was used as a control for transfection efficiency. Twenty-four hours following transfection, cells were treated for 6 hours, then lysates were collected and a luciferase assay (Promega) was performed with a luminometer (Berthold, Germany).

neonatal rat ileum [3] = experiment: Animal model of necrotizing enterocolitis: gross and microscopic pathology of ileum; assay type: in vivo; conditions: for Gross Changes (n): Bowel wall necrosis / Gross Changes (n): Pneumatosis intestinalis / Microscopic Changes (n): Stromal neutrophils / Microscopic Changes (n): Vacuolization / Microscopic Changes (n): Villous atrophy: day 4 of life
Procedure: (§4) Pregnant time-dated Sprague-Dawley rats were induced at term using subcutaneous injection of Pitocin (1 U). Immediately after birth (day zero), the neonates were weighed and randomized into two main groups. Animals were either left with their mothers and thus breast-fed, or separated from their mothers, housed in an incubator (Ohio Medical Products, Madison, Wis.), gavage fed with a special rodent formula two times daily, and subjected to 10 minutes of hypoxia (5% O2, 95% N2; PraxAir, Pittsburgh, Pa.) prior to each feeding. The formula consisted of 15 g Similac® 60/40 (Ross Pediatrics, Colombus, Ohio) in 75 mL of Esbilac® canine milk replacement (Pet-Ag Inc., Hampshire, Ill.). Rats from each group were further randomized to receive no additional treatment or one-hour per day CO treatment (250 parts per million; ppm, days 1-3). CO was delivered as described below. The neonatal rats were sacrificed on day four. The intestines were inspected for gross necrotic changes and pneumatosis intestinalis. The last 2 cm of terminal ileum was harvested for morphological studies, and mucosal scrapings were collected for detection of protein.
Animals were exposed to CO at a concentration of 250 ppm. Briefly, 1% CO in air was mixed with air (21% oxygen) in a stainless steel mixing cylinder and then directed into a 3.70 ft^3 glass exposure chamber at a flow rate of 12 L/min. A CO analyzer (Interscan, Chatsworth, Calif.) was used to measure CO levels continuously in the chamber. CO concentrations were maintained at 250 ppm at all times. Rats were placed in the exposure chamber as required.
Intestinal specimens were harvested as described above. Hematoxylin and eosin (H&E) slides were prepared as per standard protocol and examined by light microscopy. The presence of morphological changes in the intestinal epithelium, including separation of the villous core, submucosal edema, and epithelial sloughing, were determined by a pathologist in a blinded fashion.

TNF-α = experiment: Serum cytokine determination by ELISA (TNF-α); assay type: in vivo, rat; conditions: H/F neonatal rats + CO 250 ppm; 33.2 fold in H/F without CO
Procedure: as §4
(§5) Animals were exposed to CO at a concentration of 250 ppm. Briefly, 1% CO in air was mixed with air (21% oxygen) in a stainless steel mixing cylinder and then directed into a 3.70 ft^3 glass exposure chamber at a flow rate of 12 L/min. […]

COX-2 = experiment: Western blot of ileal mucosal lysates (COX-2); assay type: in vivo, rat; conditions: H/F neonatal rats + CO, ileal mucosa
Procedure: as §1, §2

IL-1β [4] = experiment: Western blot of ileal mucosal lysates (IL-1β); assay type: in vivo, rat; conditions: H/F neonatal rats + CO, ileal mucosa
Procedure: as §1, §2

HO-1 = experiment: Western blot of ileal mucosal lysates (HO-1); assay type: in vivo, rat; conditions: H/F neonatal rats + CO (data not shown)
Procedure: as §1, §2

neonatal rat ileum [5] = experiment: TUNEL staining of ileal whole mounts in the NEC model; assay type: in vivo; conditions: H/F neonatal rats, CO 250 ppm 1 h/day days 1-3, ileum day 4
Procedure: as §4, §5

nitrosotyrosines = experiment: Western blot of ileal mucosal lysates (protein nitration); assay type: in vivo, rat; conditions: H/F neonatal rats + CO, ileal mucosa
Procedure: as §1, §2

IL-1β [6] = experiment: Serum cytokine determination by ELISA (IL-1β); assay type: in vivo, rat; conditions: H/F neonatal rats + CO 250 ppm; 18.5 fold in H/F without CO
Procedure: as §4, §5

IEC-6 cells [7] = experiment: Nitrite determination (Griess) in IEC-6 culture medium; assay type: cell-based, rat; conditions: CM stimulation; 17.2±0.9 μM with CM alone, 1.4±0.3 μM unstimulated
Procedure: (§6) FIG. 8C is a picture of a Western blot illustrating that cytokine-induced iNOS protein expression is inhibited in IEC-6 cells by induction of HO-1 or treatment with CO. IEC-6 cells were treated with a cytokine mixture (CM) containing TNF-α (10 ng/ml), IL-1β (500 U/ml), and IFN-γ (1000 U/ml) for 24 hours. CO treatment (250 ppm) was initiated 1 hour prior to administration of CM and maintained throughout the duration of the experiment. Cobalt protoporphyrin (CoPP) was administered 16 hours prior to CM treatment. CM increased IEC-6 cell iNOS protein. Both CO and CoPP inhibited cytokine-induced increase in iNOS protein. The presence (+) or absence (−) of each treatment (cytokine mixture (CM), CO exposure (CO), and cobalt protoporphyrin exposure (CoPP)) is indicated beneath each lane of the Western blot.
FIG. 8D is a bar graph illustrating that the nitrite levels in supernatantants of IEC-6 cells that are exposed to CM and either CO or CoPP are lower than those of IEC-6 cells exposed to CM and air (as determined by Griess assay). Cytokine stimulation increased nitrite to 17.2±0.9 μM compared to 1.4±0.3 μM in unstimulated controls (P<0.01). […] Black bars=air exposed cells; gray bars=CO exposed cells; and cross-hatched bars=CoPP exposed cells. […]
Nitrite (NO2^−) was measured in the culture medium using the Griess method.

iNOS [8] = experiment: iNOS protein expression in IEC-6 cells by Western blot; assay type: cell-based, rat; conditions: 24 hours, CO 250 ppm from 1 hour before; for Cytokine-induced increase in iNOS protein in IEC-6 cells: CM: TNF-α 10 ng/ml, IL-1β 500 U/ml, IFN-γ 1000 U/ml, CoPP 16 hours before
Procedure: FIG. 8A is a picture of a Western blot illustrating (at 24 hours) that iNOS protein expression is inhibited in lipopolysaccharide (LPS) and/or hypoxia (1% oxygen) treated IEC-6 cells. CO treatment (250 ppm) was initiated 1 hour before the addition of LPS/hypoxia and maintained throughout the experiment. The combination of LPS (10 or 100 ng/ml) plus hypoxia increased iNOS protein expression, an effect that was inhibited by CO. The presence (+) or absence (−) of each treatment (lipopolysaccharide (lps), hypoxia exposure (hypoxia) and CO exposure (CO)) is indicated beneath each lane of the Western blot.
as §6
The rat small-intestinal epithelial cell line IEC-6 was obtained from the American Type Culture Collection (Manassas, Va.). […]
as §2

[9] = TNF-α 10 ng/ml + ActD 200 ng/ml, 18 hours, CO 250 ppm from 1 hour before
[10] = Breast-fed + CO (250 ppm, 1 h/day, days 1-3), total n=7
[11] = Formula-Fed/Hypoxia + CO (250 ppm, 1 h/day, days 1-3), total n=8

## [C-]#[O+] [CO, carbon monoxide]
iNOS [1]
  Ileal iNOS protein: markedly decreased
IEC-6 cells [2]; CO alone, in vitro
  Effect on viability of IEC-6 cells, agent alone: no measurable effect
IEC-6 cells [2]; [9]
  TNF-α/ActD-induced IEC-6 cell death (in words): significantly decreased
IEC-6 cells [2]; TNF-α 10 ng/ml + ActD 200 ng/ml, 18 hours, CO 250 ppm from 1 hour before, 24±2.1% without CO
  IEC-6 cell viability compared to untreated controls: 54±5.6%
Rat iNOS promoter
  Transcriptional activation of the iNOS promoter, fold increase: 1.7±0.2 fold
Neonatal rat ileum [3]; [10]
  Gross Changes (n): Bowel wall necrosis: 0 n
  Gross Changes (n): Pneumatosis intestinalis: 0 n
  Microscopic Changes (n): Stromal neutrophils: 0 n
  Microscopic Changes (n): Vacuolization: 1 n
  Microscopic Changes (n): Villous atrophy: 0 n
Neonatal rat ileum [3]; [11]
  Gross Changes (n): Bowel wall necrosis: 2 n
  Gross Changes (n): Pneumatosis intestinalis: 1 n
  Microscopic Changes (n): Stromal neutrophils: 1 n
  Microscopic Changes (n): Vacuolization: 3 n
  Microscopic Changes (n): Villous atrophy: 2 n
Neonatal rat ileum [3]; H/F (hypoxia/formula fed) neonatal rats, CO 250 ppm 1 h/day days 1-3, day 4
  Development of experimental NEC: significantly protected
Neonatal rat ileum [3]; breast fed neonatal rats, CO 250 ppm 1 h/day days 1-3, day 4
  Effect on gross or microscopic evaluation: no effect
TNF-α
  Serum TNF-α increase compared to breast fed controls: 3 fold
COX-2
  Ileal COX-2 protein expression: decreased expression
IL-1β [4]
  Ileal IL-1β protein expression: decreased expression
HO-1
  Ileal HO-1 expression: decreased expression
Neonatal rat ileum [5]
  TUNEL staining for cell death: diminished
nitrosotyrosines
  Ileal nitrosotyrosines (protein nitration): markedly decreased
IL-1β [6]
  Serum IL-1β increase compared to breast fed controls: 2.5 fold
IEC-6 cells [7]
  Nitrite levels in supernatants of cytokine-stimulated IEC-6 cells: 9.8 ± 0.7 µM
iNOS [8]
  Cytokine-induced increase in iNOS protein in IEC-6 cells: inhibited
iNOS [8]; LPS 10 or 100 ng/ml + 1% oxygen
  LPS/hypoxia-induced iNOS protein in IEC-6 cells: inhibited

## C=CC1=C(C)c2cc3[n-]c(cc4nc(cc5[n-]c(cc1n2)c(C)c5CCC(=O)[O-])C(CCC(=O)[O-])=C4C)c(C)c3C=C.[Co+2].[H+].[H+] [CoPP, cobalt protoporphyrin, reference compound]
IEC-6 cells [2]; [9]
  TNF-α/ActD-induced IEC-6 cell death (in words): significantly decreased
IEC-6 cells [7]
  Nitrite levels in supernatants of cytokine-stimulated IEC-6 cells: 10.4 ± 1.0 µM
iNOS [8]
  Cytokine-induced increase in iNOS protein in IEC-6 cells: inhibited
